From US20060062758A1, “Tight junction modulator peptide PN159 for enhanced mucosal delivery of therapeutic compounds” (Nastech Pharmaceutical Comapny Inc., priority 2004, published 2006)
Non-standard residues stand in square brackets, D forms with d. No end group written: not given here.

How the values were obtained:
[1] = test system: EpiAirway™ Cell Membrane (mucosal epithelial cell layer); test: Transepithelial electrical resistance (TER), EpiAirway in vitro epithelial tissue model; format: cell-based; conditions: for Relative TER Decrease: Table 8, amino acid substitutions; for Relative TER Decrease / TER(x)/TER(159) +/− SEM* / TER(x)/TER(159) +/− SEM: relative to PN159; for TER(x)/TER(159) +/− SEM*: mean values from multiple repeats; for TER(x)/TER(159) +/− SEM: Table 6, D-amino acid substitutions
Excerpt: One “kit” consists of 24 units.
A. Respiratory airway epithelial cells form tight junctions in vivo as well as in vitro, and thereby restrict the flow of solutes across the tissue. These junctions confer a transepithelial resistance of several hundred ohms×cm^2 in excised airway tissues. In the MatTek EpiAirway™ units, the transepithelial electrical resistance (TER) is reported by the manufacturer to be routinely around 1000 ohms×cm^2. […] The porous membrane-bottomed units without cells, conversely, provide only minimal transmembrane resistance (approximately 5-20 ohms×cm^2).
B. Accurate determinations of TER require that the electrodes of the ohmmeter be positioned over a significant surface area above and below the membrane, and that the distance of the electrodes from the membrane be reproducibly controlled. The method for TER determination recommended by MatTek and employed for all experiments herein employs an “EVOM”™ epithelial voltohmmeter and an “ENDOHM”™ tissue resistance measurement chamber from World Precision Instruments, Inc., Sarasota, Fla.
D. Determinations of TER are made with 1.5 mL of PBS in the chamber and 350 μL of PBS in the membrane-bottomed unit being measured. The top electrode is adjusted to a position just above the membrane of a unit containing no cells (but containing 350 μL of PBS) and then fixed to ensure reproducible positioning. The resistance of a cell-free unit is typically 5-20 ohms×cm^2 (“background resistance”).
G. The unit is gently blotted free of excess PBS on its exterior surface only before being placed into the chamber (containing a fresh 1.5 mL aliquot of PBS). An aliquot of 350 μL PBS is added to the unit before the top electrode is placed on the chamber and the TER is read on the EVOM meter.
I. The units are read in the following sequence: all sham-treated controls, followed by all formulation-treated samples, followed by a second TER reading of each of the sham-treated controls. All TER values are reported as a function of the surface area of the tissue.
TER was calculated as: TER=(R1−Rb)×A Where R1 is resistance of the insert with a membrane, Rb is the resistance of the blank insert, and A is the area of the membrane (0.6 cm^2). The effect of pharmaceutical formulations comprising intranasal delivery-enhancing agents, for example, permeabilizing peptides as measured by TER across the EpiAirway™ Cell Membrane (mucosal epithelial cell layer). Permeabilizing peptides are applied to the EpiAirway™ Cell Membrane at a concentration of 1.0 mM. A decrease in TER value relative to the control value (control=approximately 1000 ohms-cm^2; normalized to 100.) indicates a decrease in cell membrane resistance and an increase in mucosal epithelial cell permeability.
The formulation pH was fixed at 4.5.

[2] = test system: EpiAirway™ Cell Membrane (mucosal epithelial cell layer); test: Permeation kinetics across the in vitro epithelial tissue model; conditions: for Perm(x)/Perm(159) +/− SEM* / Perm(x)/Perm(159) +/− SEM: relative to PN159; for Perm(x)/Perm(159) +/− SEM*: mean values from multiple repeats; for permeability enhancement (in words): PN159 analogues compared with PN159; for Perm(x)/Perm(159) +/− SEM: Table 6, D-amino acid substitutions
Method: The EpiAirway™ system was developed by MatTek Corp (Ashland, Mass.) as a model of the pseudostratified epithelium lining the respiratory tract. The epithelial cells are grown on porous membrane-bottomed cell culture inserts at an air-liquid interface, which results in differentiation of the cells to a highly polarized morphology. The apical surface is ciliated with a microvillous ultrastructure and the epithelium produces mucus (the presence of mucin has been confirmed by immunoblotting). The inserts have a diameter of 0.875 cm, providing a surface area of 0.6 cm^2. The cells are plated onto the inserts at the factory approximately three weeks before shipping. One “kit” consists of 24 units.
A. A “kit” of 24 EpiAirway™ units can routinely be employed for evaluating five different formulations, each of which is applied to quadruplicate wells. Each well is employed for determination of permeation kinetics (4 time points), transepithelial electrical resistance (TER). An additional set of wells is employed as controls, which are sham treated during determination of permeation kinetics, but are otherwise handled identically to the test sample-containing units for determinations of transepithelial resistance and viability.
B. In all experiments, the mucosal delivery formulation to be studied is applied to the apical surface of each unit in a volume of 100 μL, which is sufficient to cover the entire apical surface. An appropriate volume of the test formulation at the concentration applied to the apical surface (no more than 100 μL is generally needed) is set aside for subsequent determination of concentration of the active material by ELISA or other designated assay.
D. In order to minimize potential sources of error and avoid any formation of concentration gradients, the units are transferred from one 0.9 mL-containing well to another at each time point in the study. These transfers are made at the following time points, based on a zero time at which the 100 μL volume of test material was applied to the apical surface: 15 minutes, 30 minutes, 60 minutes, and 120 minutes.
F. At the completion of each time point, the medium is removed from the well from which each unit was transferred, and aliquotted into two tubes (one tube receives 700 μL and the other 200 μL) for determination of the concentration of permeated test material and, in the event that the test material is cytotoxic, for release of the cytosolic enzyme, lactate dehydrogenase, from the epithelium. These samples are kept in the refrigerator if the assays are to be conducted within 24 hours, or the samples are subaliquotted and kept frozen at −80° C. until thawed once for assays. Repeated freeze-thaw cycles are to be avoided.
EIA kit (p/n S-1178(EIAH6101) was purchased from Peninsula Laboratories Inc. (Division of BACHEM, San Carlos, Calif., 800-922-1516). 17×120 mm polypropylene conical tubes (p/n 352097, Falcon, Franklin Lakes, N.J.) were used for all sample preparations. Eight standards were used for PTH quantitation. The rest of the assay procedure was the same as the kit inserts.
The instant study was designed to evaluate the effect of PN159 itself or in combination with additional permeation enhancers on PTH permeation. The PN159 concentrations evaluated are 25, 50, and 100 μM. The additional permeation enhancers are 45 mg/ml M-β-CD, 1 mg/ml DDPC, and 1 mg/ml EDTA. Sorbitol was used as a tonicifier (146-190 mM) to adjust the osmolarity of formulations to 220 mOsm/kg. The formulation pH was fixed at 4.5. PTH was chosen as a model peptide in this example. 2 mg/ml PTH was combined with PN159 with or without additional permeation enhancers. The combination was tested using an in vitro epithelial tissue model to monitor PTH permeation, transepithelial electrical resistance (TER), and the cytotoxicity of the formulation by LDH assay.
The effect of PN159 on permeation of MC-4RA was evaluated in this study.

H-KLALKLALKLNLKAALKLA-NH2 [PN448]
Relative TER Decrease [1]: 0.4

NH2-KALAALLKKAAKLLAALK-amide (H-KALAALLKKAAKLLAALK-NH2) [PN442, 180° face]
Perm(x)/Perm(159) +/− SEM* ([2]; Table 9, hydrophobic faces): 0.81 +/− 0.03
TER(x)/TER(159) +/− SEM* ([1]; Table 9, hydrophobic faces): 0.93 +/− 0.03

NH2-KALAALLKKLAKLLAALK-amide (H-KALAALLKKLAKLLAALK-NH2) [PN444, 180° face]
Perm(x)/Perm(159) +/− SEM* ([2]; Table 9, hydrophobic faces): 0.41 +/− 0.08
TER(x)/TER(159) +/− SEM* ([1]; Table 9, hydrophobic faces): 0.82 +/− 0.05

NH2-KALKLKAALALLAKLKLA-amide (H-KALKLKAALALLAKLKLA-NH2) [PN424, non-amphipathic]
Perm(x)/Perm(159) +/− SEM* ([2]; Table 9, hydrophobic faces): 0.20 +/− 0.04
TER(x)/TER(159) +/− SEM* ([1]; Table 9, hydrophobic faces): 0.59 +/− 0.07

NH2-KLAAALLKKAKKLAAALL-amide (H-KLAAALLKKAKKLAAALL-NH2) [PN441, 200° hydrophobic face]
Perm(x)/Perm(159) +/− SEM* ([2]; Table 9, hydrophobic faces): 0.35 +/− 0.04
TER(x)/TER(159) +/− SEM* ([1]; Table 9, hydrophobic faces): 0.54 +/− 0.04

NH2-KLALKLALKALKAA-amide (H-KLALKLALKALKAA-NH2) [PN417]
Perm(x)/Perm(159) +/− SEM* ([2]; Example 7, length changes): 0.04

NH2-KLALKLALKALKAALK-amide (H-KLALKLALKALKAALK-NH2) [PN418, Shortened 16 aa]
Perm(x)/Perm(159) +/− SEM* ([2]; Example 7, length changes): 0.64
TER(x)/TER(159) +/− SEM* ([1]; Example 7, length changes): 1.05 +/− 0.05

NH2-KLALKLALKALKAALKLALK-amide (H-KLALKLALKALKAALKLALK-NH2) [PN419, Lengthened 20 aa]
Perm(x)/Perm(159) +/− SEM* ([2]; Example 7, length changes): 0.74
TER(x)/TER(159) +/− SEM* ([1]; Example 7, length changes): 1.23 +/− 0.01

NH2-KLALKLALKALKAALKLALKLA-amide (H-KLALKLALKALKAALKLALKLA-NH2) [PN420, Lengthened 22 aa]
Perm(x)/Perm(159) +/− SEM* ([2]; Example 7, length changes): 0.24
TER(x)/TER(159) +/− SEM* ([1]; Example 7, length changes): 0.77 +/− 0.05

NH2-KLALKLALKALKAALKLALKLALK-amide (H-KLALKLALKALKAALKLALKLALK-NH2) [PN421, Lengthened 24 aa]
Perm(x)/Perm(159) +/− SEM* ([2]; Example 7, length changes): 0.17
TER(x)/TER(159) +/− SEM* ([1]; Example 7, length changes): 0.74 +/− 0.11

NH2-KLALKLALKALKAALKLALKLALKAL-amide (H-KLALKLALKALKAALKLALKLALKAL-NH2) [PN422, Lengthened 26 aa]
Perm(x)/Perm(159) +/− SEM* ([2]; Example 7, length changes): 0.07
TER(x)/TER(159) +/− SEM* ([1]; Example 7, length changes): 0.47 +/− 0.07

NH2-KLAWKLALKALKAALKLA-amide (H-KLAWKLALKALKAALKLA-NH2) [PN0425, Single Tryptophan]
Relative TER Decrease [1]: 1.0

NH2-KLAWKLALKALKAAWKLA-amide (H-KLAWKLALKALKAAWKLA-NH2) [PN0427, Two Tryptophan]
Relative TER Decrease [1]: 1.0

NH2-KLAWKLAWKALKAAWKLA-amide (KLAWKLAWKALKAAWKLA-NH2) [PN028, Three Tryptophan]
Relative TER Decrease [1]: 0.7

NH2-KLaLKlALkAlkAALkLA-amide (H-KL[dA]LK[dL]AL[dK]A[dL][dK]AAL[dK]LA-NH2) [PN434, D-substituted (random D substitution)]
permeability enhancement (in words) [2]: null activities
Perm(x)/Perm(159) +/− SEM [2]: 0.02 +/− 0.00
TER reduction (in words) ([1]; PN159 analogues compared with PN159): null activities
TER(x)/TER(159) +/− SEM [1]: 0.12 +/− 0.01

NH2-LKLLKKLLKKLLKLL-amide (H-LKLLKKLLKKLLKLL-NH2) [PN406, Leucine and Lysine rich]
Relative TER Decrease [1]: 0.9

NH2-LKTLATALTKLAKTLTTL-amide (H-LKTLATALTKLAKTLTTL-NH2) [PN443, Threonine]
Relative TER Decrease [1]: 0.3

NH2-LKlLKkLlkKLLkLL-amide (H-LK[dL]LK[dK]L[dL][dK]KLL[dK]LL-NH2) [PN407, Leucine and Lysine rich with D-subs]
permeability enhancement (in words) [2]: minor but statistically significant improvement on permeability
Perm(x)/Perm(159) +/− SEM [2]: 1.20 +/− 0.05
TER(x)/TER(159) +/− SEM [1]: 1.08 +/− 0.01
Relative TER Decrease [1]: 1.1

NH2-RLALRLALRALRAALRLA-amide (H-RLALRLALRALRAALRLA-NH2) [PN394, Argenine]
Relative TER Decrease [1]: 0.7

NH2-RLAWRLALRALRAALRLA-amide (H-RLAWRLALRALRAALRLA-NH2) [PN395, Argenine and Single Tryptophan]
Relative TER Decrease [1]: 0.8

NH2-alklaaklaklalklalk-amide (ALKLAAKLAKLALKLALK; all D-amino acids; C-terminal amide) [PN408, PN159 retro-inverso]
Perm(x)/Perm(159) +/− SEM [2]: 1.16 +/− 0.07
TER(x)/TER(159) +/− SEM [1]: 1.05 +/− 0.01

NH2-klalklalkalkaalkla-amide (H-[dK][dL][dA][dL][dK][dL][dA][dL][dK][dA][dL][dK][dA][dA][dL][dK][dL][dA]-NH2; SMILES CC(C)C[C@@H](NC(=O)[C@H](N)CCCCN)C(=O)N[C@H](C)C(=O)N[C@H](CC(C)C)C(=O)N[C@H](CCCCN)C(=O)N[C@H](CC(C)C)C(=O)N[C@H](C)C(=O)N[C@H](CC(C)C)C(=O)N[C@H](CCCCN)C(=O)N[C@H](C)C(=O)N[C@H](CC(C)C)C(=O)N[C@H](CCCCN)C(=O)N[C@H](C)C(=O)N[C@H](C)C(=O)N[C@H](CC(C)C)C(=O)N[C@H](CCCCN)C(=O)N[C@H](CC(C)C)C(=O)N[C@H](C)C(N)=O) [PN393, All D-substituted PN159]
Perm(x)/Perm(159) +/− SEM [2]: 1.02 +/− 0.16
TER(x)/TER(159) +/− SEM [1]: 1.06 +/− 0.00
